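Exposure lasted 48 hours, with cells grown in 96-well plates and compounds tested at five concentrations. GI50: concentration for 50% inhibition of growth.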 Activity calls are given as the source filed them. Rule as the data show it: active = GI50 up to about 1.1 µM and inactive = higher.
How the values were obtained:
Assay in all cases: inhibition of tumour cell growth, NCI panel, 48 h
BT-549 = system: BT-549
COLO 205 = system: COLO 205
EKVX = system: EKVX
K562 = system: K562
KM12 = system: KM12
LOX IMVI = system: LOX IMVI
MCF7 = system: MCF7
MDA-MB-435 = system: MDA-MB-435
MOLT-4 = system: MOLT-4
Malme-3M = system: Malme-3M
NCI-H23 = system: NCI-H23
NCI/ADR-RES = system: NCI/ADR-RES
OVCAR-4 = system: OVCAR-4
OVCAR-5 = system: OVCAR-5
PC-3 = system: PC-3
RXF 393 = system: RXF 393
UACC-257 = system: UACC-257
HCC 2998 = system: HCC 2998
RPMI-8226 = system: RPMI-8226
TK-10 = system: TK-10

SMILES	GI50 (BT-549)	GI50 (COLO 205)	GI50 (EKVX)	GI50 (K562)	GI50 (KM12)	GI50 (LOX IMVI)	GI50 (MCF7)	GI50 (MDA-MB-435)	GI50 (MOLT-4)	GI50 (Malme-3M)	GI50 (NCI-H23)	GI50 (NCI/ADR-RES)	GI50 (OVCAR-4)	GI50 (OVCAR-5)	GI50 (PC-3)	GI50 (RXF 393)	GI50 (UACC-257)	GI50 (HCC 2998)	GI50 (RPMI-8226)	GI50 (TK-10)
O=C(O)[C@H]1CCCN1CP(=O)(O)CN1CCC[C@@H]1C(=O)O	> 100 µM (inactive)	> 100 µM (inactive)	> 100 µM (inactive)	> 100 µM (inactive)	> 100 µM (inactive)	> 100 µM (inactive)	> 100 µM (inactive)	> 100 µM (inactive)	> 100 µM (inactive)	> 100 µM (inactive)	> 100 µM (inactive)	> 100 µM (inactive)	> 100 µM (inactive)	> 100 µM (inactive)	> 100 µM (inactive)	> 100 µM (inactive)	> 100 µM (inactive)			
COC(=O)CCN(CCC(=O)OC)C1CC1		> 100 µM (inactive)	> 100 µM (inactive)	> 100 µM (inactive)	> 100 µM (inactive)	> 100 µM (inactive)	> 100 µM (inactive)	> 100 µM (inactive)	> 100 µM (inactive)	> 100 µM (inactive)	> 100 µM (inactive)	> 100 µM (inactive)	> 100 µM (inactive)	> 100 µM (inactive)		> 100 µM (inactive)	> 100 µM (inactive)	> 100 µM (inactive)	> 100 µM (inactive)	> 100 µM (inactive)
Nc1c(Cl)ncnc1NCC1(CO)CCC1	> 100 µM (inactive)	> 100 µM (inactive)	90.4 µM (inactive)	> 100 µM (inactive)	> 100 µM (inactive)	> 100 µM (inactive)	> 100 µM (inactive)	> 100 µM (inactive)	> 100 µM (inactive)	> 100 µM (inactive)	> 100 µM (inactive)	> 100 µM (inactive)	> 100 µM (inactive)	> 100 µM (inactive)	> 100 µM (inactive)		63.4 µM (inactive)		> 100 µM (inactive)	> 100 µM (inactive)
CC(C(=O)NCNC(=O)c1ccccc1)C(=O)NCc1ccccc1 (stereo not given)	> 100 µM (inactive)	> 100 µM (inactive)	> 100 µM (inactive)		> 100 µM (inactive)		> 100 µM (inactive)	> 100 µM (inactive)	> 100 µM (inactive)	> 100 µM (inactive)	> 100 µM (inactive)	> 100 µM (inactive)		> 100 µM (inactive)	> 100 µM (inactive)	> 100 µM (inactive)	> 100 µM (inactive)		> 100 µM (inactive)	> 100 µM (inactive)
CC1C[C@]2(C)C(=O)Nc3ccccc3[C@@H]2Nc2ccccc21 (stereo not given in full)		18.1 µM (inactive)	19.9 µM (inactive)	32.9 µM (inactive)	17.9 µM (inactive)	16.3 µM (inactive)	21 µM (inactive)	24 µM (inactive)	17.4 µM (inactive)	23.3 µM (inactive)	19.5 µM (inactive)	19.8 µM (inactive)	44.3 µM (inactive)	35.6 µM (inactive)	17.6 µM (inactive)	24.8 µM (inactive)	15.6 µM (inactive)	33.7 µM (inactive)	23.5 µM (inactive)	21.2 µM (inactive)
CC[N+]1(C)CCC(O)(c2ccc(Cl)c(Cl)c2)C(C(=O)c2ccc(Cl)c(Cl)c2)C1 (stereo not given)	> 10 µM (inactive)	> 10 µM (inactive)	> 10 µM (inactive)	> 10 µM (inactive)	> 10 µM (inactive)	> 10 µM (inactive)	> 10 µM (inactive)		> 10 µM (inactive)	> 10 µM (inactive)	> 10 µM (inactive)	> 10 µM (inactive)	> 10 µM (inactive)	> 10 µM (inactive)	> 10 µM (inactive)	> 10 µM (inactive)	> 10 µM (inactive)	> 10 µM (inactive)	> 10 µM (inactive)	> 10 µM (inactive)
O=[N+]([O-])c1cc(Cl)cc2c1nc(NCCO)c1ccccc12	15.4 µM (inactive)	0.0435 µM (active)	6.21 µM (inactive)	4.39 µM (inactive)	9.53 µM (inactive)	17.2 µM (inactive)	2.28 µM (inactive)	6.17 µM (inactive)	3.78 µM (inactive)	12.3 µM (inactive)	9.75 µM (inactive)	23.5 µM (inactive)	13.5 µM (inactive)	9.18 µM (inactive)	4.97 µM (inactive)	6.46 µM (inactive)	13.8 µM (inactive)		6.25 µM (inactive)	10.8 µM (inactive)
CN(CCC(=O)O)C1=Nc2ccc(Cl)cc2C(c2ccccc2)=[N+]([O-])C1	> 100 µM (inactive)	> 100 µM (inactive)	> 100 µM (inactive)	> 100 µM (inactive)	> 100 µM (inactive)	> 100 µM (inactive)	> 100 µM (inactive)	86.1 µM (inactive)	> 100 µM (inactive)	> 100 µM (inactive)	> 100 µM (inactive)	> 100 µM (inactive)	72.1 µM (inactive)	> 100 µM (inactive)	> 100 µM (inactive)	> 100 µM (inactive)	> 100 µM (inactive)		> 100 µM (inactive)	> 100 µM (inactive)
O=C(O)c1c(-c2nccc3ccccc23)[nH]c(-c2ccccc2)c1S(=O)(=O)O	> 100 µM (inactive)	> 100 µM (inactive)	21.8 µM (inactive)		> 100 µM (inactive)	> 100 µM (inactive)	> 100 µM (inactive)	> 100 µM (inactive)	47.6 µM (inactive)	> 100 µM (inactive)	> 100 µM (inactive)	> 100 µM (inactive)	> 100 µM (inactive)	> 100 µM (inactive)	> 100 µM (inactive)	> 100 µM (inactive)	> 100 µM (inactive)		> 100 µM (inactive)	> 100 µM (inactive)
CN(/N=C\c1ccc2ccccc2c1)C1=NCCN1	12.1 µM (inactive)	15.3 µM (inactive)	19.8 µM (inactive)	18.1 µM (inactive)	15.7 µM (inactive)	11.2 µM (inactive)	16.3 µM (inactive)	15.6 µM (inactive)	14.7 µM (inactive)	15.6 µM (inactive)	30.7 µM (inactive)	20.6 µM (inactive)	20.8 µM (inactive)	34.8 µM (inactive)		8.63 µM (inactive)	14.8 µM (inactive)	16.2 µM (inactive)	17.3 µM (inactive)	13.2 µM (inactive)
Cc1ccc2c(/C=C/c3ccc(N(C)C)cc3)ccnc2c1C		18.4 µM (inactive)	40.4 µM (inactive)	6.81 µM (inactive)	6.78 µM (inactive)	28.5 µM (inactive)	15.7 µM (inactive)	4.57 µM (inactive)	38.6 µM (inactive)	12.6 µM (inactive)	55.3 µM (inactive)	33.2 µM (inactive)		64 µM (inactive)	18.7 µM (inactive)	18 µM (inactive)	26.8 µM (inactive)	27.9 µM (inactive)	11.1 µM (inactive)	16.2 µM (inactive)
Cc1ccc(N2C(=O)C3c4[nH]c5ccc(C)cc5c4C4CCC(C(C)(C)C)CC4C3C2=O)cc1 (stereo not given)	26.9 µM (inactive)	15.2 µM (inactive)	10.8 µM (inactive)	4.05 µM (inactive)	18 µM (inactive)	15 µM (inactive)	11.3 µM (inactive)	17.7 µM (inactive)	2.48 µM (inactive)	14 µM (inactive)	16.6 µM (inactive)	19.5 µM (inactive)	6.27 µM (inactive)	11.3 µM (inactive)	16.6 µM (inactive)		33.1 µM (inactive)		12.9 µM (inactive)	16.5 µM (inactive)
Cc1ccc(C)c(NC(=O)C(=O)Nn2c(S)nc3ccccc3c2=O)c1		> 100 µM (inactive)	71.3 µM (inactive)	> 100 µM (inactive)	> 100 µM (inactive)	> 100 µM (inactive)			> 100 µM (inactive)	> 100 µM (inactive)	> 100 µM (inactive)		> 100 µM (inactive)	> 100 µM (inactive)		> 100 µM (inactive)	> 100 µM (inactive)	> 100 µM (inactive)	> 100 µM (inactive)	> 100 µM (inactive)
O=c1[nH]c2ccccc2cc1C(Cl)=C(Cl)Cl		> 100 µM (inactive)	35.7 µM (inactive)	> 100 µM (inactive)	> 100 µM (inactive)	> 100 µM (inactive)			> 100 µM (inactive)	> 100 µM (inactive)	> 100 µM (inactive)		> 100 µM (inactive)	> 100 µM (inactive)		> 100 µM (inactive)	> 100 µM (inactive)	> 100 µM (inactive)	> 100 µM (inactive)	> 100 µM (inactive)
O=C(CC(C(=O)c1cccs1)c1ccsc1)c1ccco1 (stereo not given)		8.07 µM (inactive)	24.8 µM (inactive)		22.7 µM (inactive)	37.3 µM (inactive)	21.1 µM (inactive)	20.3 µM (inactive)	> 100 µM (inactive)		19.5 µM (inactive)	20.4 µM (inactive)		11.5 µM (inactive)		20.5 µM (inactive)	37.9 µM (inactive)	36 µM (inactive)	73.5 µM (inactive)	32.4 µM (inactive)
Cc1ccc(-n2cc(-c3ccc(Cl)cc3)c3c(NN)ncnc32)cc1		1.72 µM (inactive)	3.3 µM (inactive)	2.88 µM (inactive)	10.7 µM (inactive)	4.68 µM (inactive)		4.65 µM (inactive)	2.36 µM (inactive)	3.1 µM (inactive)	3.04 µM (inactive)	3.64 µM (inactive)	1.73 µM (inactive)	6.43 µM (inactive)	5.55 µM (inactive)	2.75 µM (inactive)	3.97 µM (inactive)	2.89 µM (inactive)		12.4 µM (inactive)
